Reference: US8735425B2, “Tetrahydroisoquinoline derivative” (Daiichi Sankyo Company, Limited, priority 2008, dated 2014)

What was measured:
[1] = target: T1, DGAT1 enzyme (Homo sapiens, UniProt O75907); assay: DGAT1 inhibitory activity test; format: biochemical; conditions: test compound concentration of 0.05 μg/ml; read-out: Inhibitory Rate
T1 construct: made in house
T1 sequence (O75907 1-488): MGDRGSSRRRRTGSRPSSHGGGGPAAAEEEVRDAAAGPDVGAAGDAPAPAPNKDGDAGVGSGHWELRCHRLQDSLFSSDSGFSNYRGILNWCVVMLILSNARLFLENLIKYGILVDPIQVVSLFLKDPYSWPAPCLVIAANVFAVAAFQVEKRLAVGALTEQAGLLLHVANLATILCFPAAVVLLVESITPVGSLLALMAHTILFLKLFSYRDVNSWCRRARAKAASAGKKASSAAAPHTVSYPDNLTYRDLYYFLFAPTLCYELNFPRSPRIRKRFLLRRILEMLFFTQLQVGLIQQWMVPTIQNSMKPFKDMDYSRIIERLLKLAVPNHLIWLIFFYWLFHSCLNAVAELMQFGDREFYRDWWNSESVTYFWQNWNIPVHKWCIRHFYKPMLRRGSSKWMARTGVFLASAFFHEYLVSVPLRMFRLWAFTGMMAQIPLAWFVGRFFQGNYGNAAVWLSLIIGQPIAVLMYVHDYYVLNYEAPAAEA
Summary of the method: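 Reaction at 23° C for 30 min in 175 mM Tris-HCl pH 8.0, 8 mM MgCl2, 1 mg/ml BSA, 0.5% Triton X-100 with 0.3 mM 1,2-dioleoyl-sn-glycerol and 10 μM [14C]-oleoyl-CoA. Triglyceride extracted into heptane, separated by TLC, radioactivity quantified; % inhibition versus vehicle control, 0-min background subtracted.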

[2] = tested on: Male C57BL/6N mice; assay: Triglyceride absorption suppression after fat loading (in vivo DGAT1 inhibitory effect); conditions: Mus musculus, po; dose of 10 mg/kg or lower, orally administered, mice fasted overnight, plasma triglyceride after fat loading; read-out: Triglyceride absorption suppressive activity
Summary of the method: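 Overnight-fasted male C57BL/6N mice dosed orally with compound (1 to 10 mg/kg in 0.5% methylcellulose), then given Pluronic-F127 1 g/kg i.p. and an oral 20% Intralipid load. Plasma triglyceride measured 1 to 4 h later. Absorption suppression (%) calculated against water-loaded and fat-loaded vehicle groups.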

Compound	inhibition at 0.05 µg/mL [1]	inhibition in vivo at up to 10 mg/kg [2]
CSc1ccc(NC(=O)Nc2ccc3c(c2)CCN(C(=O)O[C@H]2CC[C@H](CC(=O)O)CC2)C3)cc1 [Example 62, trans-6-[3-(4-methylsulfanyl-phenyl)-ureido]-3,4-dihydro-1H-isoquinoline-2-carboxylic acid 4-carboxymethyl-cyclohexyl ester]	≥ 50%	≥ 60%
CSc1cccc(NC(=O)Nc2ccc3c(c2)CCN(C(=O)O[C@H]2CC[C@H](CC(=O)O)CC2)C3)c1 [Example 64, trans-6-[3-(3-methylsulfanyl-phenyl)-ureido]-3,4-dihydro-1H-isoquinoline-2-carboxylic acid 4-carboxymethyl-cyclohexyl ester]	≥ 50%	≥ 60%
O=C(O)C[C@H]1CC[C@H](OC(=O)N2CCc3cc(NC(=O)Nc4cccc(C(F)(F)F)c4)ccc3C2)CC1 [Example 66, trans-6-[3-(3-trifluoromethyl-phenyl)-ureido]-3,4-dihydro-1H-isoquinoline-2-carboxylic acid 4-carboxymethyl-cyclohexyl ester]	≥ 50%	≥ 60%
O=C(O)C[C@H]1CC[C@H](OC(=O)N2CCc3cc(NC(=O)Nc4cccc(F)c4)ccc3C2)CC1 [Example 67, trans-6-[3-(3-fluoro-phenyl)-ureido]-3,4-dihydro-1H-isoquinoline-2-carboxylic acid 4-carboxymethyl-cyclohexyl ester]	≥ 50%	≥ 60%
Cc1cccc(NC(=O)Nc2ccc3c(c2)CCN(C(=O)O[C@H]2CC[C@H](CC(=O)O)CC2)C3)c1 [Example 68, trans-6-(3-m-tolyl-ureido)-3,4-dihydro-1H-isoquinoline-2-carboxylic acid 4-carboxymethyl-cyclohexyl ester]	≥ 50%	≥ 60%
O=C(O)C[C@H]1CC[C@H](OC(=O)N2CCc3cc(NC(=O)Nc4ccc(C(F)(F)F)cc4)ccc3C2)CC1 [Example 69, trans-6-[3-(4-trifluoromethyl-phenyl)-ureido]-3,4-dihydro-1H-isoquinoline-2-carboxylic acid 4-carboxymethyl-cyclohexyl ester]	≥ 50%	≥ 60%
CCc1cccc(NC(=O)Nc2ccc3c(c2)CCN(C(=O)O[C@H]2CC[C@H](CC(=O)O)CC2)C3)c1 [Example 70, trans-6-[3-(3-ethyl-phenyl)-ureido]-3,4-dihydro-1H-isoquinoline-2-carboxylic acid 4-carboxymethyl-cyclohexyl ester]	≥ 50%	≥ 60%
Cc1ccc(NC(=O)Nc2ccc3c(c2)CCN(C(=O)O[C@H]2CC[C@H](CC(=O)O)CC2)C3)cc1 [Example 71, trans-6-(3-p-tolyl-ureido)-3,4-dihydro-1H-isoquinoline-2-carboxylic acid 4-carboxymethyl-cyclohexyl ester]	≥ 50%	≥ 60%
CC(C)c1ccc(NC(=O)Nc2ccc3c(c2)CCN(C(=O)O[C@H]2CC[C@H](CC(=O)O)CC2)C3)cc1 [Example 72, trans-6-[3-(4-isopropyl-phenyl)-ureido]-3,4-dihydro-1H-isoquinoline-2-carboxylic acid 4-carboxymethyl-cyclohexyl ester]	≥ 50%	≥ 60%
CC(C)(C)c1ccc(NC(=O)Nc2ccc3c(c2)CCN(C(=O)O[C@H]2CC[C@H](CC(=O)O)CC2)C3)cc1 [Example 73, trans-6-[3-(4-tert-butyl-phenyl)-ureido]-3,4-dihydro-1H-isoquinoline-2-carboxylic acid 4-carboxymethyl-cyclohexyl ester]	≥ 50%	≥ 60%
N#Cc1cccc(NC(=O)Nc2ccc3c(c2)CCN(C(=O)O[C@H]2CC[C@H](CC(=O)O)CC2)C3)c1 [Example 74, trans-6-[3-(3-cyano-phenyl)-ureido]-3,4-dihydro-1H-isoquinoline-2-carboxylic acid 4-carboxymethyl-cyclohexyl ester]	≥ 50%	≥ 60%
CN(C)c1cccc(NC(=O)Nc2ccc3c(c2)CCN(C(=O)O[C@H]2CC[C@H](CC(=O)O)CC2)C3)c1 [Example 75, trans-6-[3-(3-dimethylamino-phenyl)-ureido]-3,4-dihydro-1H-isoquinoline-2-carboxylic acid 4-carboxymethyl-cyclohexyl ester]	≥ 50%	≥ 60%
CC(C)(C)c1cccc(NC(=O)Nc2ccc3c(c2)CCN(C(=O)O[C@H]2CC[C@H](CC(=O)O)CC2)C3)c1 [Example 76, trans-6-[3-(3-tert-butyl-phenyl)-ureido]-3,4-dihydro-1H-isoquinoline-2-carboxylic acid 4-carboxymethyl-cyclohexyl ester]	≥ 50%	≥ 60%
Cc1ccccc1NC(=O)Nc1ccc2c(c1)CCN(C(=O)O[C@H]1CC[C@H](CC(=O)O)CC1)C2 [Example 77, trans-6-(3-o-tolyl-ureido)-3,4-dihydro-1H-isoquinoline-2-carboxylic acid 4-carboxymethyl-cyclohexyl ester]	≥ 50%	≥ 60%
Cc1ccc(NC(=O)Nc2ccc3c(c2)CCN(C(=O)O[C@H]2CC[C@H](CC(=O)O)CC2)C3)cc1C [Example 78, trans-6-[3-(3,4-dimethyl-phenyl)-ureido]-3,4-dihydro-1H-isoquinoline-2-carboxylic acid 4-carboxymethyl-cyclohexyl ester]	≥ 50%	≥ 60%
CCOc1ccc(NC(=O)Nc2ccc3c(c2)CCN(C(=O)O[C@H]2CC[C@H](CC(=O)O)CC2)C3)cc1 [Example 80, trans-6-[3-(4-ethoxy-phenyl)-ureido]-3,4-dihydro-1H-isoquinoline-2-carboxylic acid 4-carboxymethyl-cyclohexyl ester]	≥ 50%	≥ 60%
CC(C)(C)NC(=O)Nc1ccc2c(c1)CCN(C(=O)O[C@H]1CC[C@H](CC(=O)O)CC1)C2 [Example 82, trans-6-(3-tert-butyl-ureido)-3,4-dihydro-1H-isoquinoline-2-carboxylic acid 4-carboxymethyl-cyclohexyl ester]	≥ 50%	≥ 60%
O=C(O)C[C@H]1CC[C@H](OC(=O)N2CCc3cc(NC(=O)NC4CCCC4)ccc3C2)CC1 [Example 83, trans-6-(3-cyclopentyl-ureido)-3,4-dihydro-1H-isoquinoline-2-carboxylic acid 4-carboxymethyl-cyclohexyl ester]	≥ 50%	≥ 60%
O=C(O)C[C@H]1CC[C@H](OC(=O)N2CCc3cc(NC(=O)NC4CCCCC4)ccc3C2)CC1 [Example 84, trans-6-(3-cyclohexyl-ureido)-3,4-dihydro-1H-isoquinoline-2-carboxylic acid 4-carboxymethyl-cyclohexyl ester]	≥ 50%	≥ 60%
O=C(O)C[C@H]1CC[C@H](OC(=O)N2CCc3cc(NC(=O)NCC4CCCCC4)ccc3C2)CC1 [Example 85, trans-6-(3-cyclohexylmethyl-ureido)-3,4-dihydro-1H-isoquinoline-2-carboxylic acid 4-carboxymethyl-cyclohexyl ester]	≥ 50%	≥ 60%
O=C(O)C[C@H]1CC[C@H](OC(=O)N2CCc3cc(NC(=O)NC45CC6CC(CC(C6)C4)C5)ccc3C2)CC1 [Example 86, trans-6-(3-adamantan-1-yl-ureido)-3,4-dihydro-1H-isoquinoline-2-carboxylic acid 4-carboxymethyl-cyclohexyl ester]	≥ 50%	≥ 60%
Cc1cncc(NC(=O)Nc2ccc3c(c2)CCN(C(=O)O[C@H]2CC[C@H](CC(=O)O)CC2)C3)c1 [Example 90, trans-6-[3-(5-methyl-pyridin-3-yl)-ureido]-3,4-dihydro-1H-isoquinoline-2-carboxylic acid 4-carboxymethyl-cyclohexyl ester]	≥ 50%	≥ 60%
O=C(O)C[C@H]1CC[C@H](OC(=O)N2CCc3cc(NC(=O)Nc4ccc(Cl)cn4)ccc3C2)CC1 [Example 91, trans-6-[3-(5-chloro-pyridin-2-yl)-ureido]-3,4-dihydro-1H-isoquinoline-2-carboxylic acid 4-carboxymethyl-cyclohexyl ester]	≥ 50%	≥ 60%
O=C(O)C[C@H]1CC[C@H](OC(=O)N2CCc3cc(NC(=O)Nc4ccc(Cl)nc4)ccc3C2)CC1 [Example 92, trans-6-[3-(6-chloro-pyridin-3-yl)-ureido]-3,4-dihydro-1H-isoquinoline-2-carboxylic acid 4-carboxymethyl-cyclohexyl ester]	≥ 50%	≥ 60%
